{
  "source": "patent US11357862B2",
  "about": "“Peptide-conjugated nanoparticles for targeting, imaging, and treatment of prostate cancer” (Academia Sinica, priority 2016, dated 2022)",
  "key": {"[1]": {"assay": "Pharmacokinetics of doxorubicin formulations", "assay_type": "in vivo, NOD/SCID mice", "details": "2 mg doxorubicin/kg, tail vein", "method": "Blood samples were drawn at selected time points, and quantities of doxorubicin were analyzed."}, "[2]": {"system": "PC3-Luc orthotopic tumors", "assay": "Orthotopic implantation and therapeutic study", "assay_type": "in vivo, SCID mice", "details": "doxorubicin 1 mg/kg, vinorelbine 2 mg/kg i.v. twice a week, docetaxel 5 mg/kg i.p. once a week, 4 weeks", "procedure": "PC3 cells were transfected with Lenti-Luc virus (lentivirus containing the luciferase gene), and a stable PC3-Luc cell line was selected by puromycin screening. PC3-Luc cells (5×10^5 cells in 20 μl PBS per mouse) were orthotopically transplanted into the dorsal lobe of the prostate of SCID mice after anaesthesia with Avertin at a dose of 250 mg/kg. Seven days later, all mice bearing tumors were randomly divided into five groups (n=8 per group) based on photon flux indices detected using Xenogen IVIS® 200 Luminal Image. Tumor-bearing mice were treated with different formulations of anti-cancer drugs or PBS. Tumor development was recorded every 7 days. The body weights and survival rates were measured.\nMice were injected with vehicle (PBS), docetaxel (5 mg/kg), liposomal drugs, or targeting liposomal drugs (doxorubicin 1 mg/kg; vinorelbine 2 mg/kg)."}, "[3]": {"system": "PC3 prostate cancer xenografts", "assay": "Immunohistochemical localization of phages after i.v. injection", "assay_type": "in vivo, SCID mice", "details": "co-injected with PC204", "procedure": "(§1) SCID mice were injected s.c. with 5×10^6 prostate cancer cells. Once the prostate cancer xenografts reached a suitable size (about 200˜300 mm^3), the mice were injected i.v. with 2×10^9 pfu phages in the presence or absence of 100 μg synthetic peptides. After ten minutes, the mice were sacrificed and perfused with 50 ml PBS to remove unbound phages. Selected organs and xenograft tumors were removed, and the phage titer recovered by E. coli strain ER2738 was measured using IPTG/X-Gal spray. Partial organs and tumors were embedded using optimal cutting temperature compound (O.C.T.) to prepare sections for immunohistochemical staining.\nThe tissue samples from in vivo phage homing experiments were embedded in frozen blocks. Phage distribution in each tissue was assessed by first removing O.C.T. with cold PBS, and then fixing the frozen sections with 4% paraformaldehyde for 10 min. The sections were incubated with 1% BSA for 30 min to block non-specific binding. After washing, the sections were incubated with mouse anti-M13 antibodies at a dilution of 1:250 for 1 hour, followed by treatment with polymer-based SUPER SENSITIVE™ IC detection system. In brief, the sections were incubated with SUPER […]™ reagent for 20 min and poly-HRP reagent for 30 min. DAB was used as a chromogen to visualize peroxidase activity, and the reaction was stopped by the addition of PBS. […]"}, "[4]": {"system": "DU145 prostate cancer xenografts", "assay": "In vivo phage homing and peptide competitive inhibition", "parameters": "species or system SCID mice", "details": "co-injection with PC204", "procedure": "as §1"}, "[5]": {"system": "PC3 prostate cancer xenografts", "assay": "In vivo phage homing and peptide competitive inhibition", "parameters": "species or system SCID mice", "details": "co-injection with PC204", "procedure": "as §1"}},
  "data": [
    {"molecule": "COc1cccc2c1C(=O)c1c(O)c3c(c(O)c1C2=O)C[C@@](O)(C(=O)CO)C[C@@H]3O[C@H]1C[C@H](N)[C@H](O)[C@H](C)O1", "note": "[FD, doxorubicin]", "values": [
      {"measurement": "plasma pharmacokinetic profile of doxorubicin", "setting": "[1]", "value": "poor pharmacokinetic profile"}
    ]},
    {"molecule": "CC(=O)O[C@@]12CO[C@@H]1C[C@H](O)[C@@]1(C)C(=O)[C@H](O)C3=C(C)[C@@H](OC(=O)[C@H](O)[C@@H](NC(=O)OC(C)(C)C)c4ccccc4)C[C@@](O)([C@@H](OC(=O)c4ccccc4)[C@H]21)C3(C)C", "note": "[docetaxel]", "values": [
      {"measurement": "median survival times", "setting": "[2]", "value": 58, "unit": "days"}
    ]},
    {"molecule": "SP204: synthetic targeting peptide KQFSALPFNFYT, SEQ ID NO: 8, the ligand displayed on phage PC204 (Phage clone No. 204 displayed peptide sequence)", "values": [
      {"measurement": "phage immunoreactivity in tumor tissue on co-injection of PC204 with peptide", "setting": "[3]", "value": "no immunoreactivity was observed"},
      {"measurement": "inhibition of PC204 binding to tumor tissue by co-injected peptide", "setting": "[4]", "value": 2.87, "unit": "fold"},
      {"measurement": "inhibition of PC204 binding to tumor tissue by co-injected peptide", "setting": "[5]", "value": 5.2, "unit": "fold"}
    ]}
  ]
}
